This note sets out measurements from ChEMBL document CHEMBL1201862, “PubChem BioAssay data set” (2004).

Assay [1] has as its target Luciferin 4-monooxygenase (Photinus pyralis, UniProt P08659). Briefly: Counter Screen for Luciferase-based Assay Positives. [Related pubchem assays: 620, 618, 411 ]. For orientation: The purpose of a counterscreen is to sort out artefacts and off-target activity.
The next assay concerns HT-1080. In words: HT1080 cell viability loss – fluorescence readout (AID 620). As to conditions: Homo sapiens. Type of assay: functional, cell-based.
Assay [2] has as its target T1, Calpain-2 catalytic subunit (Sus scrofa, UniProt P43367).
T1 sequence (P43367 whole entry): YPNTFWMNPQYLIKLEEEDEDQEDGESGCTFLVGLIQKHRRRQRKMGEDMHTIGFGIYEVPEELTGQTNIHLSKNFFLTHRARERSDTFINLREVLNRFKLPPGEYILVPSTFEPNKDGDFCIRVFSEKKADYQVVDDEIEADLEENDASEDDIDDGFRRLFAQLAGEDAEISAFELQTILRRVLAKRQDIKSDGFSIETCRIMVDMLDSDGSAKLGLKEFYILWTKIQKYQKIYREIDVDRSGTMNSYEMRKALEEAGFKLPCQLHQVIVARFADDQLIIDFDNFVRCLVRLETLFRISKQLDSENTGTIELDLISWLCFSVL
In words: m-calpain protease blockers, concentration series – biochemical, fluorogenic peptide substrate, dose response (AID 1420). The class given is functional.

The nature of assay [3]: A549 cell cytotoxicity, dose response, cytotoxicity control, plate reader, cherry-pick, antagonist series (AID 743412). Type of assay: functional, cell-based.
The nature of assay [4]: toxicity toward HepG2 liver cells – cell-based, plate reader, cherry-pick, antagonist series, cytotoxicity control, dose response (AID 743416). Type of assay: functional.
Assay [5] can be described thus: blockers of bursicon-stimulated LGR2 cAMP reporter – cell-based, HEK293, CRE-luciferase reporter, cherry pick, set 2, dose response (AID 743343).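 Further: transfected cells were stimulated with diluted bursicon conditioned medium after compound addition.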 The class given is functional.
Assay [6] can be described thus: blockade of melanocortin 4 receptor signaling – cell-based, plate reader, cherry pick, counter-screen for LGR2 antagonist project, dose response (AID 743444).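 Further: transfected HEK 293 cells stimulated with alpha-MSH peptide; potency of inhibitors of the alpha-MSH evoked signal.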 Type of assay: functional.
Assay [7] in a line: viability loss in HEK293 cells – cell-based, plate reader, cherry-picked samples, cytotoxicity control, dose response (AID 743446). The class given is functional.
For a further assay, the target named is T2, Caspase-3 (Homo sapiens, UniProt P42574).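 Further: Dose-response selectivity test against caspase-3 for candidate inhibitors of sentrin-specific proteases (SENPs).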
T2 sequence (P42574 whole entry): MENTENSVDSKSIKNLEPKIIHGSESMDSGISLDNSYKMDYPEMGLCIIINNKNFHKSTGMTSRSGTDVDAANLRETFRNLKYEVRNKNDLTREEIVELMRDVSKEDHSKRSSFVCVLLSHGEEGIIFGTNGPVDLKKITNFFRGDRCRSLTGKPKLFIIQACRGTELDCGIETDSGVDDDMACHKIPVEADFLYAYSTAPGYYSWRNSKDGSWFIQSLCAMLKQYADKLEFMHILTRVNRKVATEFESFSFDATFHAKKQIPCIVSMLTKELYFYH
Type of assay: functional.

Assay [8] addresses T3, Sentrin-specific protease 7 (Homo sapiens, UniProt Q9BQF6).
T3 sequence (Q9BQF6 whole entry): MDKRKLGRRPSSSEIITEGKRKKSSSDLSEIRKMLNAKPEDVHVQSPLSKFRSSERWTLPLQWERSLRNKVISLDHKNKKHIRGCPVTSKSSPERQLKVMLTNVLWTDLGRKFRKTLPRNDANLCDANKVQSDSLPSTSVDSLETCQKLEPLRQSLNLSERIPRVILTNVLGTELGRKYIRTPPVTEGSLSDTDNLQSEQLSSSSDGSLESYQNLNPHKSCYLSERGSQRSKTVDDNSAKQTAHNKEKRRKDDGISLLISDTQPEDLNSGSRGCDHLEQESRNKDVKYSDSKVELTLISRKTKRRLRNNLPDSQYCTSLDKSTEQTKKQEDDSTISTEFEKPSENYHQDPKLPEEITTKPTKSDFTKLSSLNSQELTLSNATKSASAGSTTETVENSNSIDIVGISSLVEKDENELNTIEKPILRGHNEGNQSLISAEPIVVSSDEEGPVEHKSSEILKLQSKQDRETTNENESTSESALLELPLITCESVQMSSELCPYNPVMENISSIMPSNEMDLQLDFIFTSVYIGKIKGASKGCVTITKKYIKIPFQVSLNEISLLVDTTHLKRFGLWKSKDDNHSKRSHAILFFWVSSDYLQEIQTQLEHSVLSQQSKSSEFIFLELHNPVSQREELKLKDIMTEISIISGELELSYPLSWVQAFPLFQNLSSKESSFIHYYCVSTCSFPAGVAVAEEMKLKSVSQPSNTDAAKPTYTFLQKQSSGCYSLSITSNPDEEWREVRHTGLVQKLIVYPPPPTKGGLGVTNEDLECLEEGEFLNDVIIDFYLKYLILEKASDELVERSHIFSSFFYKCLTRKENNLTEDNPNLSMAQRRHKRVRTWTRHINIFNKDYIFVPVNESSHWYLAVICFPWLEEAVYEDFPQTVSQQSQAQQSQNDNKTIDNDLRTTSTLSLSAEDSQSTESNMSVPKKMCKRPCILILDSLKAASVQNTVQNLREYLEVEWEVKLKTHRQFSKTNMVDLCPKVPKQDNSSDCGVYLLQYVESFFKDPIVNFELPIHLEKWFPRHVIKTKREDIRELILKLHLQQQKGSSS
The class given is functional.

For assay [9], the target named is T4, Sentrin-specific protease 6 (Homo sapiens, UniProt Q9GZR1).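 Further: Luminescence-based dose-response confirmatory assay of SENP6 inhibition, following up an ultra-high-throughput screen.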
T4 sequence (Q9GZR1 whole entry): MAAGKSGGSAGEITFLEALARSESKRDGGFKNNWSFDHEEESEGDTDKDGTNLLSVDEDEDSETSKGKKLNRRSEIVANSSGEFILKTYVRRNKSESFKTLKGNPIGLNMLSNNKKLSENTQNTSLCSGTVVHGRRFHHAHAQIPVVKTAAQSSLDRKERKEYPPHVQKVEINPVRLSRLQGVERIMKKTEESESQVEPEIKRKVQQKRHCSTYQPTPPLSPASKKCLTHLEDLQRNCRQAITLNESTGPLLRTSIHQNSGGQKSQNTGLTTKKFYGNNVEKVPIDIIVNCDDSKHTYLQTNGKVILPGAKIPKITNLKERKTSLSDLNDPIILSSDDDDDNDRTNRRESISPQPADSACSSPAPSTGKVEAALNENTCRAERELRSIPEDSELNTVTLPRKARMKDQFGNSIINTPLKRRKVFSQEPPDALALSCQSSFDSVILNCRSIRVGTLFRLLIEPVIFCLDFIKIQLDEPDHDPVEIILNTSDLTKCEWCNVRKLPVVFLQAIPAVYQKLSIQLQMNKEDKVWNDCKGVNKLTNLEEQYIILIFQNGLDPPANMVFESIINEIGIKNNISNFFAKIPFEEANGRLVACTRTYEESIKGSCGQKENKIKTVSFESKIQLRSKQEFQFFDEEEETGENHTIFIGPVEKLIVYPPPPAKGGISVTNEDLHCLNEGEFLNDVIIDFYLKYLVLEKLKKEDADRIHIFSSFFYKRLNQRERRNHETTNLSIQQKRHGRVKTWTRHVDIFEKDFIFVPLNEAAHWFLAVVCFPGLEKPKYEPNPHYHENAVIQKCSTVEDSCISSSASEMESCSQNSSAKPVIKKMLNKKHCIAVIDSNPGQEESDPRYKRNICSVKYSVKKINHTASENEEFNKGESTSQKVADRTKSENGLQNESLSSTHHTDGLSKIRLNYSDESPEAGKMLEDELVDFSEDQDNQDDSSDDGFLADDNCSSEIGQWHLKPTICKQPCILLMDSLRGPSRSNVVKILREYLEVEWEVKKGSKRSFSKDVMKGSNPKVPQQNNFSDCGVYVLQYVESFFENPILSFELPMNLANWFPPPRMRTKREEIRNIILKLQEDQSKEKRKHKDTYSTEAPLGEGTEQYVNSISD
Type of assay: functional.

Assay [10] concerns the target T5, Sentrin-specific protease 8 (Homo sapiens, UniProt Q96LD8).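 Further: luminescence read-out of SENP8 inhibition, dose-response confirmation following an ultra-high-throughput screen.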
T5 sequence (Q96LD8 whole entry): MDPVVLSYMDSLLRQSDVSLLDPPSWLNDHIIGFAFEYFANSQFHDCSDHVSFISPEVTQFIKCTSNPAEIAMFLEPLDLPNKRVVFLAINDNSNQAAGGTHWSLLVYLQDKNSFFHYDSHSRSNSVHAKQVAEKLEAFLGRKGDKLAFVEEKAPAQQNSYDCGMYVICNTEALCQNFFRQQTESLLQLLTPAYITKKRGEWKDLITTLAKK
The class given is functional.

Assay [11] can be described thus: Luminescence Cell-Based Dose Retest to Confirm Inhibitors of Cancer Stem Cells. [Related pubchem assays (depositor defined):AID2717, AID2721]. Type of assay: functional. Conditions: Homo sapiens.
The test system of the next assay is INS1. Briefly: INS-1E survival protection against cytokine death – cell-based, luminescence, retest, dose response (AID 449756).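 Further: cell death triggered by IL-1 beta plus TNF-alpha plus IFN-gamma mixture; protective hits raise ATP signal compared with cytokine alone wells.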 The class given is functional. Conditions: Rattus norvegicus.
The next assay has as its target Paired box protein Pax-8 (Homo sapiens, UniProt Q06710). In words: PAX8 transcriptional activity inhibition in RMG-I – RMG-I cells, luciferase, cherry-pick, dose response (AID 687027).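 Further: luciferase reporter driven by Pax8 target thyroperoxidase promoter measured by SteadyGlo luminescence.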 The class given is functional, cell-based.
Assay [12] can be described thus: general cell-killing toxicity readout – plate reader, dry powder samples, cytotoxicity control for PAX8 inhibitor project, dose response (AID 743021). The class given is functional, cell-based.

Usually EC50 stands for the concentration giving half of the maximal effect. The term IC50 denotes the concentration that gives 50% inhibition. As usually defined, the AC50 is the midpoint of the concentration-response curve, whichever way the signal moves.

Active and inactive are the calls of the source. Some results are limits rather than exact numbers.

Luciferin 4-monooxygenase, sequence (P08659 whole entry): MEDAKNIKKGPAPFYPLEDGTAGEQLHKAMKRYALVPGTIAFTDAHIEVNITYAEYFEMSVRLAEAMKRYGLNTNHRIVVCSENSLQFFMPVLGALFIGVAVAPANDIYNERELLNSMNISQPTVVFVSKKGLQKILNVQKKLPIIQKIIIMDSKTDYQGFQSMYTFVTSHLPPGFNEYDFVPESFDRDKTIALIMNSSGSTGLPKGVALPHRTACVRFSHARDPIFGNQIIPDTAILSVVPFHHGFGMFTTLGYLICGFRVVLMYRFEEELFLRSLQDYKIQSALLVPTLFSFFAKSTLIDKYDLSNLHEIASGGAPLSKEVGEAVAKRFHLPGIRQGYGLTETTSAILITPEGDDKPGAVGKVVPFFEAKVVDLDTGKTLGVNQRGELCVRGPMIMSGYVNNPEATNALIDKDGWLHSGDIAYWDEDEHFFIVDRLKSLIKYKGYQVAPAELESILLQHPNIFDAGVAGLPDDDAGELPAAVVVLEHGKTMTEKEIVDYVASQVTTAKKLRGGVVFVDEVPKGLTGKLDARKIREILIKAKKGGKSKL
Paired box protein Pax-8, sequence (Q06710 whole entry): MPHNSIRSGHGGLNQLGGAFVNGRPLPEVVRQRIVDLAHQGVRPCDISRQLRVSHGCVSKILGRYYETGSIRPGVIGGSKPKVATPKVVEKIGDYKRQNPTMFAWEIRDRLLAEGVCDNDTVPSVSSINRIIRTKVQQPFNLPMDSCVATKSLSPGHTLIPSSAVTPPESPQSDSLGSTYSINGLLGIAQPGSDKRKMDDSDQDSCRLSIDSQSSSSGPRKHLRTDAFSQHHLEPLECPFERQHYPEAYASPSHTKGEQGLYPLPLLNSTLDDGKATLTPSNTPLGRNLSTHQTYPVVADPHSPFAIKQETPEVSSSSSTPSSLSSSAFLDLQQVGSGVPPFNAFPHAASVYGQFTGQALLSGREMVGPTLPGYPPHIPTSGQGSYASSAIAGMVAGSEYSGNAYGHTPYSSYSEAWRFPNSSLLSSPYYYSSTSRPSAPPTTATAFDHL

Regarding `Cc1ccnc(Nc2nc3ccccc3o2)n1`, the EC50 in [1] is 3.04 µM (active); with HT-1080, > 50 µM (not active). Further, the IC50 in assay [2] is > 50 µM (not active). For the same compound, the AC50 in assay [3] was 43.5 µM (active); in [4] it was 46.8 µM (active); in [5], 5.98 µM (active); in assay [6], 4.77 µM (active); in assay [7], 30.1 µM (active).
On to `CCOc1cccc(C(=O)Nc2ccc3ccccc3c2)c1`, for which the half-maximal inhibitory concentration (IC50) on Caspase-3 was 3.54 µM (active); in assay [8], 1.46 µM (active); in assay [9], 2.37 µM (active); in assay [10], 4.95 µM (active). In addition, the AC50 in [3] is > 52 µM (inactive); in assay [4], > 52 µM (inactive); in assay [5] it was 5.95 µM (active); in [6] it was 5.43 µM (active); in [7] it was > 52 µM (inactive).
In the case of `O=C(C[C@@H]1C/C=C/CC[C@H](Cc2ccc(F)cc2)C(=O)OC[C@@H](Cc2ccccc2)NC1=O)N[C@H](CO)Cc1ccccc1`, the AC50 in assay [11] is 0.956 µM (active); in the assay with INS1 it was 5 µM (active); on Paired box protein Pax-8, 15 µM (active); in assay [12], 33.4 µM (active).
